According to patent US20040198663A1, “Method of treating cardiac ischemia by using erythropoietin” (priority 2003, published 2004):

Key:
nitric oxide synthase = assay: Nitrite and nitrate release from isolated hearts; design: species or system rabbit; conditions: before 2.3±0.9
Method: Nitrite and nitrate release from hearts before (2.3±0.9 nmoles/min/g) and after (2.4±1.9 nmoles/min/g) 15 minutes treatment with erythropoietin (1.0 U/ml, n=8) were not different.

[1] = system: adult male Sprague Dawley rat hearts; assay: Coronary artery ligation model, isolated perfused heart, 30 min regional ischemia and 3 hours reperfusion; conditions: erythropoietin 1.0 U/ml 15 minutes prior to regional ischemia, vs control
From the text: Animals used in this study were adult male Sprague Dawley rats (200-350 g, generally 300 g). Animals were housed under standard conditions and allowed to feed ad lib. The Animal Care and Use Committee of the Medical College of Wisconsin approved all procedures performed in accordance with the regulations adopted by the National Institutes of Health.
A myocardial infarction was produced via the ligation of the left main artery using 6-0 prolene suture (See, e.g., Clements-Jewery et al., Br J Pharmacol. 135:807-815, 2002; Farkas et al., J Cardiovasc Pharmacol. 39,412-424, 2002). Rats were anesthetized with sodium pentobarbital (50 mg/kg i.p.). Heparin was then administered (150 U/kg i.p.) to prevent the formation of a thrombus in the coronary vasculature. The heart was then excised and perfused retrogradely with bicarbonate buffer at a pressure of 80 mmHg. (See e.g., Baker et al., Am J Physiol 278, H1395-H1400, 2000). The perfusate was not recirculated. […]
The heart was sectioned in 2 mm segments from apex to atrio-ventricular groove in a transverse fashion. Each segment was recorded and placed in formalin. […] The percentage of infarction of each slide was expressed as a percentage of the entire area of the heart.

p42/44 MAP kinase = assay: Western analysis of cytosolic and particulate fractions of erythropoietin-treated hearts; design: species or system rabbit
Method: (§1) Western analysis. Hearts from infant rabbits were isolated and aerobically perfused with bicarbonate buffer for 30 minutes at constant pressure, then perfused with erythropoietin for 5 or 15 minutes. The free wall of the left ventricle was excised and immediately freeze-clamped between stainless steel tongs pre-cooled with liquid nitrogen. Frozen myocardial tissue samples were powdered in a pre-cooled stainless steel mortar and pestle.
(§2) The powdered tissue was then processed to obtain cytosolic and particulate fractions for Western analysis, as described in Raflee et al., Circulation 106:239-45 (2002). Powdered tissue was homogenized in sample buffer (50 mM Tris pH 7.5, 5 mM EDTA, 10 mM EGTA, 10 mM benzamidine, 10 μg/ml pepstatin A, 50 μg/ml PMSE, 10 μg/ml aprotinin, 10 μg/ml leupeptin, and 0.3% β-mercaptoenthanol) on ice for 50 strokes. Nuclei and cellular debris was removed by centrifugation (1000 g at. 4° C. for 15 min). The supernatant was transferred to a new cold 1.5 mL microcentrifuge tube. The cytosolic and particulate portions of total cellular proteins were separated by a 30-minute centrifugation at 45000 g. Protein concentrations were determined by the method of Bradford. Equal amounts of protein were analyzed by SDS-PAGE and Western blotting by using either isoform-specific antibodies for phospho-PKC detection or specific antibodies against phosphorylated and non-phosphorylated p38 MAPK, JNK, and p42/44 MAPK. The blots were developed by ECL. Densitometry was performed on each sample and analyzed with the use of NIH image software. Rafiee et al., Circulation 106:239-45 (2002).
(§3) Cytosolic and particulate fractions from erythropoietin-treated and untreated hearts were prepared. Protein content for PKCε, p38 MAP kinase, p42/44 MAP kinase and JUN kinase was determined by SDS-PAGE and Western blot analysis using monoclonal antibodies specific for PKCε, phosphorylated p38 MAP kinase (Thr180/Tyr182), p42/44 MAP kinase (Thr202/Tyr204), and JUN kinase (Thr183/Tyr185). Non-phosphorylated antibodies were used to ensure equal loading of proteins.

p38 MAP kinase = assay: as above; design: species or system rabbit
Method: as §1, §2, §3

JUN kinase = assay: as above; design: species or system rabbit
Method: as §1, §2, §3

PKCε = assay: as above; design: species or system rabbit; conditions: erythropoietin 1.0 U/ml
Method: as §1, §2, §3

[2] = erythropoietin 1.0 U/ml for 5 minutes
[3] = erythropoietin 1.0 U/ml for 15 minutes

erythropoietin: Recombinant human erythropoietin, a glycoprotein hormone, obtained from Cell Science, Inc.
nitrite and nitrate release from hearts after treatment (nitric oxide synthase; after 15-minute erythropoietin 1.0 U/ml, not different (discussion)): 2.4 ± 0.9 nmol/min/g | nitrite and nitrate release from hearts after treatment (nitric oxide synthase; after 15 minutes erythropoietin 1.0 U/ml, not different): 2.4 ± 1.9 nmol/min/g | myocardial infarct size [1]: decrease in myocardial infarct size | treatment time at which phosphorylation of p42/44 MAP kinase was maximal (p42/44 MAP kinase; erythropoietin 1.0 U/ml): 15 min | phosphorylation of p42/44 MAP kinase (p42/44 MAP kinase; [2]): remarkable phosphorylation of p42/44 MAP kinase in the cytosolic fraction with minor phosphorylation in the particulate fraction | phosphorylation of p42/44 MAP kinase (p42/44 MAP kinase; [3]): enhanced phosphorylation of p42/44 MAP kinase in the cytosolic fraction and in the particulate fraction | treatment time at which phosphorylation of p38 MAP kinase was maximized (p38 MAP kinase; erythropoietin 1.0 U/ml): 5 min | phosphorylation of p38 MAP kinase (p38 MAP kinase; [2]): phosphorylation of p38 MAP kinase in the cytosolic fraction but not in the particulate fraction | extent of phosphorylation of p38 MAP kinase (p38 MAP kinase; [3]): declined | treatment time at which phosphorylation of JUN kinase was maximized (JUN kinase; erythropoietin 1.0 U/ml): 5 min | phosphorylation of JUN kinase (JUN kinase; [2]): phosphorylation of JUN kinase in the cytosolic fraction but not in the particulate fraction | phosphorylation of JUN kinase in the cytosolic fraction (JUN kinase; [3]): declined | treatment time at which phosphorylation of PKCε was maximal (PKCε): 15 min | PKCε activation and translocation (PKCε; 5 or 15 minutes): activated and translocated from the cytosolic to the particulate fraction
